Data on eight compounds can be found in patent EP3290417A1, “2-CHLORO-N-[2-(1,3-THIAZOL-5-YL)ETHYL]-5-(5-FLUOROPYRIMIDIN-2-YL)-BENZAMIDES AND THEIR USE AS P2X7 RECEPTOR ANTAGONISTS” (AXXAM S.p.A., priority 2016, dated 2018).

In one series the target is T1, human P2X7 channel (Homo sapiens, UniProt Q99572).
T1 construct: expressed in transfected cells; host or cells: HEK-293
T1 sequence (Q99572 1-595): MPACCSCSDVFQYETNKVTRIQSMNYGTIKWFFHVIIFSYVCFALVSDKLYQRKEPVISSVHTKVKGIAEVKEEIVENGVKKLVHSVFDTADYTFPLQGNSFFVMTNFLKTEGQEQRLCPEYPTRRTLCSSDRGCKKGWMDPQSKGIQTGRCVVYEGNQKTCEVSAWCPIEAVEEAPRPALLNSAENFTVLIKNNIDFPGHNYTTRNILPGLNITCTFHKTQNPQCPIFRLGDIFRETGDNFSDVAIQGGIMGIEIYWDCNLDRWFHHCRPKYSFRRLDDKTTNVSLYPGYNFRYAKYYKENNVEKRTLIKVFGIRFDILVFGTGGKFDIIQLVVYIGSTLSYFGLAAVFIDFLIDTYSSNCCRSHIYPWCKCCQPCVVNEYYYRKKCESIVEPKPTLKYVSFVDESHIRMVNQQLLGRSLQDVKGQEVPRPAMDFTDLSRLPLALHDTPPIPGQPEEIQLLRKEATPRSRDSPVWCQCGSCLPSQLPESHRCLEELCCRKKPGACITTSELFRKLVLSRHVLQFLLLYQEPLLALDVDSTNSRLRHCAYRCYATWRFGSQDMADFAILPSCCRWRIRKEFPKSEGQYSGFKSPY
In words: human P2X7 channel assay by automated patch-clamp (QPatch16X, whole-cell voltage clamp). Format: cell-based. The conditions noted are these: HEK-293 cells expressing the P2X7 channels; current evoked by 100 microM BzATP; held at -80 mV; room temperature; read-out: hP2X7 (IC50; nM). How it is done:
In order to directly monitor the block of P2X7 channel, an electrophysiological assay was developed and implemented on the QPatch16X automated electrophysiology instrument.
HEK-293 cells expressing the P2X7 channels were cultured in modified EMEM.
72 hours before experiment, 5 million cells were seeded onto T225 flasks. Just before the experiment cells were washed twice, detached from the flask with trypsin-EDTA, re-suspended in the suspension solution and placed on the QPatch 16x.
The compounds (20 mM in a 100% DMSO) stored at -20°C were prepared the day of the experiment (a first dilution 1:20 in 100% DMSO to prepare a 1 mM stock solution, then a 1 microM solution in external solution + a serial dilution 1:10).
The standard whole-cell voltage clamp experiments were performed at room temperature. For these experiments the multihole technology was used and the data were sampled at 2 KHz.
The intracellular solution contained (mM) 135 CsF, 10 NaCl, 1 EGTA, 10 HEPES, (pH 7.2 with CsOH) whereas the extracellular contained (mM) 145 NaCl, 4 KCl, 0.5 MgCl2, 1 CaCl2, 10 HEPES, 10 Glc (pH 7.4 with NaOH).
After establishment of the seal and the passage in the whole cell configuration, the cells were held at -80 mV. The P2XR7 current was evoked by applying 100 microM of BzATP alone (4 times) and then in the presence increasing concentrations of the compound under investigation (1, 10, 100 and 1000 nM).
The pre-incubation periods 5 to 8 contain increasing concentrations of the compound of interest (1, 10, 100 and 1000 nM), as illustrated in Figure.
The maximal inward current evoked by BzATP in absence or presence of increasing concentrations of the compounds under investigation was measured and normalized. The potential modulatory effect was measured as % of control and as IC50 determined fitting the dose-response curves data with the following equation: Y = 100/(1+10^(∧)((LogIC50−X)*HillSlope)) [formula] where: • X: log of concentration • Y: normalized response, 100% down to 0%, decreasing as X increases. • LogIC50: same log units as X • HillSlope: slope factor or HS, unitless
In general terms: In patch-clamp work, channel activity is measured electrically.

A further series addresses T2, rat P2X7R (Rattus norvegicus, UniProt Q64663).
T2 construct: expressed in transfected cells; host or cells: HEK-293 (stably transfected)
T2 sequence (Q64663 1-595): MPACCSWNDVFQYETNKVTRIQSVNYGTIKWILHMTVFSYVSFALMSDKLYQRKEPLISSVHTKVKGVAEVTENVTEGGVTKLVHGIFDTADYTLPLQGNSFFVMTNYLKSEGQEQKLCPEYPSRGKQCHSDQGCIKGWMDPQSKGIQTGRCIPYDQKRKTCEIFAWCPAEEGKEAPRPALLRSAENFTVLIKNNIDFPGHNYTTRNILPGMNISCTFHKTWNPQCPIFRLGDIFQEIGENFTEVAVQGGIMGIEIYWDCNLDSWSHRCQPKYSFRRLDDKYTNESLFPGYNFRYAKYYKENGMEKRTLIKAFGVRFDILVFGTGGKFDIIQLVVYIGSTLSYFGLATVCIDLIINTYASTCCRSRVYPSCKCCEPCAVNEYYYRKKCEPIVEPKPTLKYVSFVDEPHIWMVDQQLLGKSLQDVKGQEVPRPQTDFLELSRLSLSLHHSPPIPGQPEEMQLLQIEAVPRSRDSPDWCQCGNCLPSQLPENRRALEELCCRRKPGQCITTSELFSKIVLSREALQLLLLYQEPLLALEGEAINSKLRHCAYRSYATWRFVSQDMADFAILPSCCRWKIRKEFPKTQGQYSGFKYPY
As to the kind of experiment: rat P2X7 Ca2+ influx assay, Screen Quest Fluo-8 No Wash Calcium Assay Kit (FLIPRTETRA). The note with it: HEK-293 cells stably transfected with rat P2X7R; BzATP at ~EC80; 5' incubation with compound; read-out: rP2X7 (IC50; nM). The series is classed as cell-based. How it is done: Ca^2+ influx was measured in HEK-293 cells stably transfected with the receptor using Screen Quest™ Fluo-8 No Wash Calcium Assay Kit (AAt Bioquest®). Briefly, once inside the cells, the lipophilic blocking groups of Fluo-8 are cleaved by non-specific cell esterases, resulting in a negatively-charged fluorescent-dye that stays inside cells. Its fluorescence increases upon binding to calcium. When HEK-293/P2X7 cells were stimulated with BzATP, Ca^2+ entered the cells and the fluorescence of Fluo-8 NW increaseed. The dye absorption spectrum was compatible with excitation at 488 nm by argon laser sources and its emission wavelength was in the range of 515-575 nm. […]
Compounds were tested at FLIPRTETRA according to the following method: • first injection at FLIPRTETRA of 10 µL of 3x test compound (in Tyrode's buffer 0.3 mM Ca^2+ / Mg^2+-free + DMSO 0.5% final concentration) • 5' incubation • second injection at FLIPRTETRA of 15 µL of 3x BzATP at ∼EC80 (in Tyrode's buffer 0.3 mM Ca^2+ / Mg^2+-free + BSA 0.0003% final concentration) • Fluorescence recording for 3' […]
The effect of the test compounds was measured as percent inhibition vs the reference antagonist and IC50 values were calculated accordingly.

A short description of series [1]: metabolic stability in mouse liver microsomes. Format: in vitro ADME. The conditions noted are these: 1 µM test compound, 1 mg/mL protein, pH 7.4, 0-60 minutes. The protocol:
In vitro evaluation of test compounds for metabolic stability using Rat or Mouse liver
Test System Rat or Mouse Liver Microsomes
• Test compound concentration: 1 µM • Time Points: 0, 5, 10, 30 and 60 minutes • Final Protein concentration: 1 mg/mL • Number of Replicates: Two • Potassium Phosphate Buffer pH 7.4 100 mM • End Point: % Remaining of Test compound, Half life, Clint • Bioanalysis by LC-MS/MS
10 mM stock solution of test compound were prepared in DMSO and dilute with water: acetonitrile (1:1) to a concentration of 1 mM. Working concentration of 100 µM were prepared by further dilution with water: acetonitrile (1: 1).
100 mL of Milli Q water will be added to K2HPO4 (1.398 g) and KH2PO4 (0.27 g) to get final pH 7.4.
Preincubation mixtures: 2.5 µL Test Cpd. + 75 µL Liver microsomes @ 3.33 mg/mL + 85 µL of 100 mM potassium phosphate buffer (Preincubate for 10 min @ 37°C)
60 min w/o cofactor: 32.5 µL of Preincubation mixture + 17.5 µL of 100 mM potassium phosphate buffer (Incubate for 60 min @ 37°C)
0 min sample: 16.25 µL of Preincubation mixture + 200 µL of acetonitrile containing internal standard + 8.75 µL of cofactor Incubation mixture 62 µL of cofactor (2.5 mM) + Remaining incubation mixture (Incubated for 60 min@ 37°C).
Sample preparation: 25 µL incubation mixture + 200 µL of acetonitrile containing internal standard + Vortex 5 min @ 1200 rpm + Centrifuge 10 min @ 4000 rpm. […]
In general terms: Liver microsomes are a subcellular fraction often used to study metabolism.

Usually IC50 stands for the concentration at which inhibition is half-maximal. With “2-chloro-N-{2-[4-(cyclopropyl)-1,3-thiazol-5-yl]-2-(4,4-difluoropiperidin-1-yl)ethyl}-5-(5-fluoropyrimidin-2-yl)benzamide [Compound 4]”, at human P2X7 channel, the IC50 was determined as 103 nM.
For the compound `O=C(NCC(c1cnc(C(F)F)s1)N1CCOCC1)c1cc(-c2ncc(F)cn2)ccc1Cl` (racemic) [Compound 1, (±)-2-chloro-N-{2-[2-(difluoromethyl)-1,3-thiazol-5-yl]-2-(morpholin-4-yl)ethyl}-5-(5-fluoropyrimidin-2-yl)benzamide], the results for the IC50 on human P2X7 channel and on rat P2X7R were 47.1 nM and 66 nM, respectively.
For `O=C(NCC(c1cnc(C(F)F)s1)N1CCOCC1)c1cc(-c2ncc(F)cn2)ccc1Cl` (single isomer, unassigned; (-)) [Compound 3, (-)-2-chloro-N-{2-[2-(difluoromethyl)-1,3-thiazol-5-yl]-2-(morpholin-4-yl)ethyl}-5-(5-fluoropyrimidin-2-yl)benzamide], in that order: 27 nM and 48 nM.
For the compound `O=C(NCC(c1scnc1CO)N1CCC(F)(F)CC1)c1cc(-c2ncc(F)cn2)ccc1Cl` (centres unmarked) [Compound 5, 2-chloro-N-{2-[4-(hydroxymethyl)-1,3-thiazol-5-yl]-2-(4,4-difluoropiperidin-1-yl)ethyl}-5-(5-fluoropyrimidin-2-yl)benzamide], the IC50 at human P2X7 channel amounted to 64.6 nM.
For the compound `O=C(NCC(c1scnc1CF)N1CCC(F)(F)CC1)c1cc(-c2ncc(F)cn2)ccc1Cl` (centres unmarked) [Compound 6, 2-chloro-N-{2-[4-(fluoromethyl)-1,3-thiazol-5-yl]-2-(4,4-difluoropiperidin-1-yl)ethyl}-5-(5-fluoropyrimidin-2-yl)benzamide], the IC50 on human P2X7 channel is 33.3 nM. The Mouse Liver Microsomal Clearance (Cli; µL/min/mg) in series [1] stood at 47.3 µL/min/mg.
For the compound `O=C(NCC(c1cnc(CF)s1)N1CCOCC1)c1cc(-c2ncc(F)cn2)ccc1Cl` (centres unmarked) [Compound 7, 2-chloro-N-{2-[2-(fluoromethyl)-1,3-thiazol-5-yl]-2-(morpholin-4-yl)ethyl}-5-(5-fluoropyrimidin-2-yl)benzamide], the IC50 on human P2X7 channel was determined as 38.3 nM.
The same measure, in the same setting: in the case of `O=C(NCC(c1cnc(CF)s1)N1CCC(F)(F)CC1)c1cc(-c2ncc(F)cn2)ccc1Cl` (centres unmarked) [Compound 8, 2-chloro-N-{2-[2-(fluoromethyl)-1,3-thiazol-5-yl]-2-(4,4-difluoropiperidin-1-yl)ethyl}-5-(5-fluoropyrimidin-2-yl)benzamide] it was 20.3 nM; in that of `C#Cc1ncc(C(CNC(=O)c2cc(-c3ncc(F)cn3)ccc2Cl)N2CCC(F)(F)CC2)s1` (centres unmarked) [Compound 9, 2-chloro-N-[2-(4,4-difluoropiperidin-1-yl)-2-(2-ethynyl-1,3-thiazol-5-yl)ethyl]-5-(5-fluoropyrimidin-2-yl)benzamide], 39.2 nM.
